Laboratory results from patent US20190105340A1, “METHODS AND COMPOSITIONS FOR TARGETING VASCULAR MIMICRY” (New York Genome Center, Inc., priority 2017, published 2019).
Entries after “also recorded” stand apart in the source; their conditions may differ.

What was measured:
[1] = cancer patients; cited from earlier work
[2] = low-dose, IRE1 activation in vivo; cited from earlier work
4T1-T^VM cells [3] = assay: polyA+ RNA-Seq of treated cells with GO analysis and GSEA; assay type: cell-based, mouse
Excerpt: Y axis is log^2 fold change mRNA levels and X axis is the negative log^10 of the corrected p-value. Red points highlight significant changes with a p value below 0.05.
To assess the role of VM as a resistance mechanism in this clinical cohort, we examined whether this Bev resistance gene signature was altered by perturbations that influence VM (FIGS. 9A-9C). […] Thus, co-targeting of VM may enhance response to anti-angiogenic cancer therapies.

4T1-T^VM cells [4] = assay: plating remaining treated cells in 2D (cell viability); assay type: cell-based, mouse; details: remaining treated cells plated in 2D
Excerpt: (§1) To ascertain whether regulation of VM underlies these effects of IRE1 on metastasis we turned to the in vitro VM tube assay. Inhibition of IRE1 with two independent small molecule inhibitors of its RNAse activity enhanced VM tubulogenesis while activation of IRE1 with Tunicamycin suppressed VM (FIGS. 4E and F).

4T1-T^VM cells [5] = assay: in vitro VM tube assay on Matrigel; assay type: cell-based, mouse; details: 4T1-T^VM cells treated directly, plated on Matrigel
Excerpt: FIG. 1G are gel photographs showing the results of an in vitro Matrigel assay for VM. Only VM clones 4T1-E and 4T1-T can form tube structures when plated on Matrigel. All data from ref. 7.
Both SerpinE2 and SLPI are secreted proteins but whether their secretion is necessary for their effects on VM is unknown. To ascertain the importance of intra- vs extracellular localization of SerpinE2 and SLPI, we perform knockdown add-back experiments in which we suppress SerpinE2 or SLPI in 4T1-T^VM cells using shRNAs directed against the 3′ UTR followed by re-expression of HALO-tagged coding sequence constructs (FIG. 2) in which the signal peptide (a necessary signal for secretion) is either present or absent^8. These engineered cell lines then are tested for their ability to form VM tubes in vitro in the Matrigel assay and their ability to form VM channels and metastases in vivo by transplantation into the mammary fat-pad of Balb/C mice.
as §1, with “F). […]” for “F).”

Substance | clinical response [1] | toxicity in vivo [2] | GO analysis of genes significantly down-regulated by Tunicamycin/IRE1 activation and up-regulated by IRE1 inhibition (4T1-T^VM cells [3]; DESeq corrected p value<0.05) | GO analysis of genes significantly up-regulated by Tunicamycin/IRE1 activation and down-regulated by IRE1 inhibition (4T1-T^VM cells [3]; DESeq corrected p value<0.05) | Bev resistance gene signature (GSEA) (4T1-T^VM cells [3]; bevacizumab resistance genes of Mehta et al. in IRE1-regulated expression data) | VM gene signature (GSEA) (4T1-T^VM cells [3]; signature from VM clones vs all other clones) | effects on cell viability (4T1-T^VM cells [4]) | VM tubulogenesis (tube formation) (4T1-T^VM cells [5])
Avastin®/bevacizumab: VEGF-blocking antibody (Genentech) | most patients showing transient responses followed by inevitable resistance |  |  |  |  |  |  | 
Tunicamycin |  | without apparent toxicity | enriched for regulators of vasculature development and secreted ECM/ECM-affiliated genes | enrichment of terms related to ER stress | globally down-regulated; also recorded: profoundly suppresses | profoundly suppresses | ruled out any demonstrable effects on cell viability | suppressed VM; also recorded: profoundly suppresses VM tubulogenesis
